Ends that are not written are not given here.
Assays:
[1] = Electronic tongue analysis (Taste-Sensing System SA 402B); design: unit not given here; details: reference solution 30 mM KCl + 0.3 mM tartaric acid as baseline, first measurement excluded; for Umami: sensor AAE; for Umami / Bitter / Sweet: detection threshold 0, room temperature; for Umami / Bitter / Sour / Salty: four replicates; for Sour: detection threshold -13, room temperature; for Salty: detection threshold -6, room temperature; for Sweet: measured five times
Protocol: Taste characteristics were analyzed using the electronic tongue system E-tongue (Taste-Sensing System SA 402B, Intelligent Sensor Technology Co. Ltd., Japan). The system was equipped with five specific sensor probes for detecting sourness (CA0), saltiness (CT0), bitterness (C00), sweetness (GL1), and umami (AAE). Samples were tested at concentrations of 0.1 mg/mL and 1.0 mg/mL. Prior to experiments, sensors were activated by immersion in a reference solution (30 mM KCl and 0.3 mM tartaric acid) for 24 h. A 30 min self-diagnostic procedure was performed before each measurement to ensure data accuracy. The reference solution served both as a cleaning solution and standard solution for taste signal calibration. According to the manufacturer’s instructions, using the reference solution as baseline, the detection thresholds were set at −13 for sourness, −6 for saltiness, and 0 for other taste modalities. Two cleaning solutions were employed for electrode maintenance: (1) 30% ethanol solution containing 100 mM HCl for negative charge reference electrodes, and (2) 30% ethanol solution containing 100 mM KCl and 10 mM KOH for positive charge reference electrodes. All taste measurements were performed at room temperature with four replicates, except for sweetness which was measured five times. The first measurement data were excluded from analysis.

[2] = tested on: human bronchial epithelial cells (BEAS-2B)
[3] = tested on: human embryonic kidney cells (HEK293T)
[4] = tested on: human pancreatic ductal epithelial cells (HPNE)
Protocol: (§1) The cytotoxicity of 73 synthetic peptides was evaluated using four human cell lines: human pancreatic ductal epithelial cells (HPNE), human embryonic kidney cells (HEK293T), human umbilical vein endothelial cells (HUVEC), and human bronchial epithelial cells (BEAS-2B). When cell density reached 70% confluence, the complete culture medium was replaced with serum-free maintenance medium, and peptides were added at a final concentration of 100 μM for 36 h. Control groups received only serum-free maintenance medium without peptides. Cell proliferation was assessed using the CCK-8 assay kit (Solarbio, CA1210) according to the manufacturer’s instructions.

[5] = tested on: human umbilical vein endothelial cells (HUVEC)
Protocol: as §1

Row | Substance | Umami ([1]; peptide 0.1 mg/mL) | Umami ([1]; peptide 1 mg/mL) | Bitter ([1]; sensor C00, peptide 0.1 mg/mL) | Bitter ([1]; sensor C00, peptide 1 mg/mL) | Sour ([1]; sensor CA0, peptide 0.1 mg/mL) | Sour ([1]; sensor CA0, peptide 1 mg/mL) | Salty ([1]; sensor CT0, peptide 0.1 mg/mL) | Salty ([1]; sensor CT0, peptide 1 mg/mL) | Sweet ([1]; sensor GL1, peptide 0.1 mg/mL) | Sweet ([1]; sensor GL1, peptide 1 mg/mL) | Average cell viability, BEAS-2B [2] | Cell viability, BEAS-2B, Data1 [2] | Cell viability, BEAS-2B, Data2 [2] | Cell viability, BEAS-2B, Data3 [2] | Average cell viability, HEK293T [3] | Cell viability, HEK293T, Data1 [3] | Cell viability, HEK293T, Data2 [3] | Cell viability, HEK293T, Data3 [3] | Average cell viability, HPNE [4] | Cell viability, HPNE, Data1 [4] | also measured
1 | AEDNSL [TaPep43] | 1.07 | -5.11 | 7.83 | 4.00 | -1.87 | 12.46 | -20.35 | 7.60 | 5.59 | -3.45 | 108.94 | 119.14 | 93.72 | 113.96 | 98.86 | 96.72 | 102.11 | 97.76 | 110.25 | 117.40 | Cell viability, HPNE, Data2 [4]: 99.83; Cell viability, HPNE, Data3 [4]: 113.51; Average cell viability, HUVEC [5]: 103.73; Cell viability, HUVEC, Data1 [5]: 104.42; Cell viability, HUVEC, Data2 [5]: 115.43; Cell viability, HUVEC, Data3 [5]: 91.33
2 | AGDAW [TaPep30] | 1.69 | -4.59 | 7.53 | 3.18 | -3.43 | 12.02 | -20.28 | 11.18 | 5.66 | -6.46 | 116.78 | 115.45 | 115.55 | 119.34 | 110.47 | 112.62 | 114.23 | 104.57 | 103.96 | 100.43 | Cell viability, HPNE, Data2 [4]: 106.72; Cell viability, HPNE, Data3 [4]: 104.73; Average cell viability, HUVEC [5]: 102.13; Cell viability, HUVEC, Data1 [5]: 114.08; Cell viability, HUVEC, Data2 [5]: 97.39; Cell viability, HUVEC, Data3 [5]: 94.92
3 | AKDEKEL [TaPep1] | 2.15 | -3.64 | 10.96 | 3.53 | -4.53 | 9.07 | -19.14 | 13.72 | 6.22 | -3.13 | 108.54 | 105.88 | 114.46 | 105.28 | 101.23 | 110.16 | 98.99 | 94.54 | 94.74 | 92.35 | Cell viability, HPNE, Data2 [4]: 92.15; Cell viability, HPNE, Data3 [4]: 99.73; Average cell viability, HUVEC [5]: 97.71; Cell viability, HUVEC, Data1 [5]: 96.99; Cell viability, HUVEC, Data2 [5]: 94.60; Cell viability, HUVEC, Data3 [5]: 101.54
4 | ANGPE [TaPep69] | 1.23 | -4.62 | 7.32 | 3.75 | -2.38 | 11.54 | -19.29 | 9.06 | 5.65 | -4.24 | 106.78 | 116.65 | 94.82 | 108.87 | 99.97 | 100.13 | 102.30 | 97.48 | 101.93 | 107.52 | Cell viability, HPNE, Data2 [4]: 97.94; Cell viability, HPNE, Data3 [4]: 100.33; Average cell viability, HUVEC [5]: 102.58; Cell viability, HUVEC, Data1 [5]: 91.72; Cell viability, HUVEC, Data2 [5]: 108.65; Cell viability, HUVEC, Data3 [5]: 107.37
5 | APEELDA [TaPep36] | 0.55 | -6.54 | 7.85 | 3.11 | -0.61 | 17.06 | -18.92 | 13.68 | 5.62 | -8.13 | 102.92 | 111.17 | 103.39 | 94.22 | 103.41 | 103.44 | 102.11 | 104.67 | 113.58 | 114.11 | Cell viability, HPNE, Data2 [4]: 111.61; Cell viability, HPNE, Data3 [4]: 115.01; Average cell viability, HUVEC [5]: 101.78; Cell viability, HUVEC, Data1 [5]: 93.96; Cell viability, HUVEC, Data2 [5]: 95.80; Cell viability, HUVEC, Data3 [5]: 115.59
6 | AQDDLP [TaPep20] | 1.29 | -4.77 | 7.24 | 3.35 | -2.48 | 11.76 | -21.79 | 6.62 | 5.13 | -4.17 | 101.76 | 114.06 | 96.91 | 94.32 | 99.56 | 100.69 | 99.18 | 98.80 | 110.18 | 113.51 | Cell viability, HPNE, Data2 [4]: 117.20; Cell viability, HPNE, Data3 [4]: 99.83; Average cell viability, HUVEC [5]: 100.19; Cell viability, HUVEC, Data1 [5]: 93.96; Cell viability, HUVEC, Data2 [5]: 106.73; Cell viability, HUVEC, Data3 [5]: 99.87
7 | AQKQE [TaPep53] | 2.86 | -3.47 | 7.88 | 2.74 | -6.36 | 8.92 | -19.95 | 13.59 | 9.02 | -4.92 | 99.50 | 92.92 | 110.37 | 95.21 | 96.06 | 101.55 | 93.50 | 93.12 | 100.53 | 111.51 | Cell viability, HPNE, Data2 [4]: 101.33; Cell viability, HPNE, Data3 [4]: 88.75; Average cell viability, HUVEC [5]: 99.25; Cell viability, HUVEC, Data1 [5]: 90.21; Cell viability, HUVEC, Data2 [5]: 95.96; Cell viability, HUVEC, Data3 [5]: 111.60
